Measurements from patent publication US20110281812A1, “Compounds” (priority 2009, published 2011).
Read-outs that look alike come from different tables or passages of the source.

Experiments:
Male BALB/c mice = test: Cigarette-smoke-induced lung neutrophilia; assay type: in vivo; details: dose of 100 mg/kg, oral gavage
Experimental: Male BALB/c mice (weighing 21-24 g, were randomly grouped, 5 animals per group) were pre-treated with compound (100, 30, 10, 3 and 1 mg/kg body weight) or vehicle (5% DMSO/95% methyl-cellulose 0.5% w/v, positive control) by oral gavage in a volume of 10 mL/kg. 2 hours after compound administration, 10 mice were placed into a plexiglass box (Braintree Scientific, size 10″×4″×4″) with an input port for aerosol and another port for exhaust. Cigarette smoke was introduced through the aerosol port via a peristaltic pump (Masterflex L/S, Digital Economy Drive) set at 40 ml/min. Breathing air was also introduced through the same port via an elbow in the tubing at a rate of 0.4 L/min. With these settings, smoke concentration delivered to the box was approximately 10%. 3 cigarettes (research type 4A1, University of Kentucky Tobacco Institute) were given back-to-back with a 1 min period between each one, when the mice breathed fresh air for one minute. 2 to 3 hours after the first group of cigarettes, 2 additional cigarettes were given, again allowing 1 min between each cigarette. After the last cigarette, the mice were returned to their normal housing. This procedure was carried out for 2 days.
On the 3rd day, mice were euthanized with 0.1 ml Fatal Plus i.p., then bronchoalveolar lavaged with 5×0.7 ml Dulbecco's phosphate-buffered saline (dPBS, in-house Media Prep lab) through a tracheal tube. BALF was spun at 3000 rpm for 10 min, the supernatant discarded, and the cells resuspended with 1 ml dPBS. Slides were made on a cytospin (100 μl fluid, spun at 300 rpm for 5 min), then stained with Diff Quick for differential counts (minimum of 200 cells counted). Total cell counts were performed with a hemocytometer after a dilution with Tuerks solution.
Results are expressed as percentage decrease in number of neutrophils in BALF of treated animals compared to positive control (vehicle treated and smoke challenged animals).

[1] = test system: IL-6 production in LPS-stimulated murine spleenocytes; test: Inhibition of IL-6 production in LPS-stimulated murine spleenocytes in vitro; assay type: cell-based; details: Mus musculus, 50 μM concentration of the compound, read-out: inhibition of interleukin-6 (IL-6) production
Experimental: Test and reference substances used in an in vitro assays were dissolved in dimethyl sulfoxide (DMSO) (Sigma Chemical Co., USA) at a concentration of 50 mM and were further diluted to test concentrations in appropriate cell culture medium.
After cervical dislocation, mouse spleens were removed using sterile dissection tools. Spleens were transferred to a pre-wetted cell strainer in a 50 mL sterile conical tube and cell suspension was made by gentle puddle. Cells were centrifuged (20 min, 300×g) and resuspended in 2 mL of sterile phosphate buffered saline (PBS) (Sigma Chemical Co., USA). Red blood cells were lysed by addition of 3 mL of sterile water and occasionally gentle shaking for 1 minute. Afterwards, the tube was filled to 40 mL with DMEM medium and centrifuged (20 min, 300×g). Cells were resuspended in DMEM supplemented with 1% FBS and seeded in a 24-well plate, 1×10^6 cells per mL medium.
Final concentrations of 50 μM, 25 μM, 12.5 μM, 6.3 μM and 3.1 μM of test compounds were prepared by diluting a 50 mM DMSO stock in Dulbecco's modified Eagle medium (DMEM) (Gibco, USA) supplemented with 1% heat inactivated fetal bovine serum (FBS) (BioWest, Ringmer, United Kingdom).
Cells were pre-incubated with the test compounds for 3 h at 37° C., in an atmosphere of 5% CO2 and 90% humidity. Afterwards, cells were stimulated with 1 μg/mL lipopolysaccharide (LPS, E. coli 0111:B4, Sigma Chemical Co., USA) and incubated overnight. Concentration of IL-6 was determined in cell supernatants by sandwich ELISA using capture and detection antibodies (R&D Systems, USA) according to the manufacturer's recommendations.
Inhibition (as percentage) was calculated using the following formula:
% inhibition=[1−(concentration of IL-6 in sample−concentration of IL-6 in negative control)/(concentration of IL-6 in positive control−concentration of IL-6 in negative control)]×100.
The positive control refers to LPS-stimulated samples that were not preincubated with the compounds.
The negative control refers to unstimulated and untreated samples.

male BALB/cJ mice = test: Lung neutrophilia induced by bacterial lipopolysaccharide in male BALB/cJ mice - Method B; assay type: in vivo; details: Mus musculus, ip, 24 h, single dose of 100 mg/kg i.p., vs LPS challenged untreated animals
Experimental: For intraperitoneal administration (i.p.) compounds were dissolved in a final concentration of 10 mg/mL. The required amount of compound was first dissolved in dimethylsulfoxide (DMSO, Sigma) and then diluted with 0.5% (w/v) methyl-cellulose so that the final DMSO concentration was 5% (v/v). The obtained solution was applied in a dose volume of 0.1 mL per 10 g of animal. Therefore, the compound dose was 100 mg/kg.
Male BALB/cJ mice (Charles River, Germany), with an average weight of ˜25 g were randomly grouped (n=8 in testing group, 10 in positive control and 6-8 in negative control). Mice received intraperitoneally (i.p.) a single dose of 100 mg/kg of test compound. Two hours after administration, 0.4 μg of LPS (from Escherichia coli serotype 0111:B4, Sigma), dissolved in sterile saline (0.9% NaCl) in a volume of 50 μL, was intranasally administered to all experimental groups except the negative control group, which received the same volume of vehicle (saline). Animals were sacrificed approximately 24 hours after application of LPS in order to obtain bronchoalveolar lavage fluid (BALF), which was used to determine absolute number of cells and the percentage of neutrophils. […] In some experiments neutrophil levels in BALF were assessed by measurement of concentration of a neutrophil-specific enzyme myeloperoxidase (MPO). Results are then expressed as percentage of decrease in myeloperoxidase (MPO) concentration measured in BALF lysates of treated animals compared to positive control (Mouse MPO ELISA Kit, Hycult biotechnology, Nederlands). For this purpose, BALF was sonicated after addition of 1.5% Triton-X-100 (Pharmacia Biotech) in Milli-Q water and frozen at −80° C. until analysed.

[2] = Neutrophil, read-out: inhibition of number of neutrophils or decrease in myeloperoxidase concentration in BALF
[3] = read-out: inhibition of total cell number in BALF

| SMILES | reduction of neutrophil number in BALF, statistical significance (Male BALB/c mice; p<0.05 vs vehicle control) | inhibition of neutrophil number in BALF (Male BALB/c mice; vs vehicle treated smoke challenged animals) | inhibition at 50 µM [1] [%] | inhibition in vivo at 100 mg/kg (male BALB/cJ mice; [2]) [%] | inhibition in vivo at 100 mg/kg (male BALB/cJ mice; [3]) [%] |
| --- | --- | --- | --- | --- | --- |
| CCC(=O)NCCCO[C@H]1[C@H](O[C@@H]2[C@@H](C)[C@H](O[C@H]3C[C@@](C)(OC)[C@@H](O)[C@H](C)O3)[C@@H](C)C(=O)O[C@H](CC)[C@@](C)(O)[C@H](O)[C@@H](C)N(C)C[C@H](C)C[C@@]2(C)O)O[C@H](C)C[C@@H]1N(C)C [Example 2, 2′-O-[3-(Propanoylamino)propyl]-9-deoxo-9a-methyl-9a-aza-9a-homoerythromycin A] | no statistical significance | less than 10% | > 40 | – | – |
| CC[C@H]1OC(=O)[C@H](C)[C@@H](O[C@H]2C[C@@](C)(OC)[C@@H](O)[C@H](C)O2)[C@H](C)[C@@H](O[C@@H]2O[C@H](C)C[C@H](N(C)C)[C@H]2OCCCNC(=O)CN(C)C)[C@](C)(O)C[C@@H](C)CN(C)[C@H](C)[C@@H](O)[C@]1(C)O [Example 7, 2′-O-{3-[(N,N-Dimethylglycyl)amino]propyl}-9-deoxo-9a-methyl-9a-aza-9a-homoerythromycin A] | – | – | > 40 | > 30 | > 30 |
| CC[C@H]1OC(=O)[C@H](C)[C@@H](O[C@H]2C[C@@](C)(OC)[C@@H](O)[C@H](C)O2)[C@H](C)[C@@H](O[C@@H]2O[C@H](C)C[C@H](N(C)C)[C@H]2OCCCNC(=O)CCC(=O)OC)[C@](C)(O)C[C@@H](C)CN(C)[C@H](C)[C@@H](O)[C@]1(C)O [Example 13, 2′-O-(3-{[4-(Methyloxy)-4-oxobutanoyl]amino}propyl)-9-deoxo-9a-methyl-9a-aza-9a-homoerythromycin A] | – | – | > 40 | > 50 | > 50 |
| CC[C@H]1OC(=O)[C@H](C)[C@@H](O[C@H]2C[C@@](C)(OC)[C@@H](O)[C@H](C)O2)[C@H](C)[C@@H](O[C@@H]2O[C@H](C)C[C@H](N(C)C)[C@H]2OCCCNC(=O)CCCC(=O)OC)[C@](C)(O)C[C@@H](C)CN(C)[C@H](C)[C@@H](O)[C@]1(C)O [Example 14, 2′-O-(3-{[5-(Methyloxy)-5-oxopentanoyl]amino}propyl)-9-deoxo-9a-methyl-9a-aza-9a-homoerythromycin A] | – | – | > 40 | > 30 | > 30 |
| CC[C@H]1OC(=O)[C@H](C)[C@@H](O[C@H]2C[C@@](C)(OC)[C@@H](O)[C@H](C)O2)[C@H](C)[C@@H](O[C@@H]2O[C@H](C)C[C@H](N(C)C)[C@H]2OCCCNC(=O)C2CCC2)[C@](C)(O)C[C@@H](C)CN(C)[C@H](C)[C@@H](O)[C@]1(C)O [Example 15, 2′-O-{3-[(Cyclobutylcarbonyl)amino]propyl}-9-deoxo-9a-methyl-9a-aza-9a-homoerythromycin A] | – | – | > 40 | > 30 | > 30 |
| CC[C@H]1OC(=O)[C@H](C)[C@@H](O[C@H]2C[C@@](C)(OC)[C@@H](O)[C@H](C)O2)[C@H](C)[C@@H](O[C@@H]2O[C@H](C)C[C@H](N(C)C)[C@H]2OCCCNC(=O)c2ccoc2)[C@](C)(O)C[C@@H](C)CN(C)[C@H](C)[C@@H](O)[C@]1(C)O [Example 17, 2′-O-{3-[(3-Furanylcarbonyl)amino]propyl}-9-deoxo-9a-methyl-9a-aza-9a-homoerythromycin A] | – | – | > 40 | > 50 | > 50 |
| CC[C@H]1OC(=O)[C@H](C)[C@@H](O[C@H]2C[C@@](C)(OC)[C@@H](O)[C@H](C)O2)[C@H](C)[C@@H](O[C@@H]2O[C@H](C)C[C@H](N(C)C)[C@H]2OCCCNC(=O)c2cnc(C)cn2)[C@](C)(O)C[C@@H](C)CN(C)[C@H](C)[C@@H](O)[C@]1(C)O [Example 18, 2′-O-(3-{[(5-Methyl-2-pyrazinyl)carbonyl]amino}propyl)-9-deoxo-9a-methyl-9a-aza-9a-homoerythromycin A] | – | – | > 40 | > 50 | > 50 |
| CC[C@H]1OC(=O)[C@H](C)[C@@H](O[C@H]2C[C@@](C)(OC)[C@@H](O)[C@H](C)O2)[C@H](C)[C@@H](O[C@@H]2O[C@H](C)C[C@H](N(C)C)[C@H]2OCCCNC(=O)c2c(C)nn(C)c2C)[C@](C)(O)C[C@@H](C)CN(C)[C@H](C)[C@@H](O)[C@]1(C)O [Example 19, 2′-O-(3-{[(1,3,5-Trimethyl-1H-pyrazol-4-yl)carbonyl]amino}propyl)-9-deoxo-9a-methyl-9a-aza-9a-homoerythromycin A] | – | – | > 40 | > 50 | > 50 |
| CC[C@H]1OC(=O)[C@H](C)[C@@H](O[C@H]2C[C@@](C)(OC)[C@@H](O)[C@H](C)O2)[C@H](C)[C@@H](O[C@@H]2O[C@H](C)C[C@H](N(C)C)[C@H]2OCCCNC(=O)c2cccnc2)[C@](C)(O)C[C@@H](C)CN(C)[C@H](C)[C@@H](O)[C@]1(C)O [Example 20, 2′-O-{3-[(3-Pyridinylcarbonyl)amino]propyl}-9-deoxo-9a-methyl-9a-aza-9a-homoerythromycin A] | – | – | > 40 | > 30 | > 30 |
| CC[C@H]1OC(=O)[C@H](C)[C@@H](O[C@H]2C[C@@](C)(OC)[C@@H](O)[C@H](C)O2)[C@H](C)[C@@H](O[C@@H]2O[C@H](C)C[C@H](N(C)C)[C@H]2OCCCNC(=O)C2CCOCC2)[C@](C)(O)C[C@@H](C)CN(C)[C@H](C)[C@@H](O)[C@]1(C)O [Example 25, 2′-1-{3-[(Tetrahydro-2H-pyran-4-ylcarbonyl)amino]propyl}-9-deoxo-9a-methyl-9a-aza-9a-homoerythromycin A] | – | – | > 40 | > 50 | > 50 |
| CC[C@H]1OC(=O)[C@H](C)[C@@H](O[C@H]2C[C@@](C)(OC)[C@@H](O)[C@H](C)O2)[C@H](C)[C@@H](O[C@@H]2O[C@H](C)C[C@H](N(C)C)[C@H]2OCCCNC(=O)CC(C)C)[C@](C)(O)C[C@@H](C)CN(C)[C@H](C)[C@@H](O)[C@]1(C)O [Example 41, 2′-O-{3-[(3-Methylbutanoyl)amino]propyl}-9-deoxo-9a-methyl-9a-aza-9a-homoerythromycin A] | – | – | > 40 | – | – |
